Assay results published in patent US9750789B2, “Use of matrix metalloproteinase inhibitors to treat tuberculosis” (priority 2011, dated 2017).
Converted amounts (≈) assume the structure as drawn. “Also recorded” adds a separate entry of the source.

Columns and labels:
[1] = MacArthur et al 1978; cited from earlier work
[2] = system: primary human bronchial epithelial cells; test: Total protein in bronchial epithelial cell culture supernatants (Bradford); details: Bradford analysis, data not shown
[3] = system: primary human macrophages; test: Total protein accumulation in cell culture supernatants (Bradford); details: macrophage supernatants, doxycycline groups
bioluminescent Mtb [4] = test: microbe, parasite or virus in culture; assay type: cell-based, Mycobacterium tuberculosis
bioluminescent Mtb [5] = test: MIC determination with bioluminescent Mtb; assay type: cell-based, Mycobacterium tuberculosis
MMP-1 [6] = details: Rand et al 2009; cited from earlier work
MMP-1 [7] = test: MMP-1 secretion by stimulated primary human monocytes; assay type: cell-based; details: Pam3Cys 5 μg/ml, 24 h

C[C@H]1c2cccc(O)c2C(=O)C2=C(O)[C@]3(O)C(=O)C(C(N)=O)=C(O)[C@@H](N(C)C)[C@@H]3[C@@H](O)[C@@H]21 [Doxycycline, doxycycline]
peak concentration in serum [1]: 3.2 µg/mL | total protein in cell culture supernatants [2]: no different between groups | protein accumulation in the cell culture supernatants [3]: the same in each group | MBC/MIC ratio (bioluminescent Mtb [4]): 16 | MBC (bioluminescent Mtb [4]; Mycobacterium tuberculosis, 72 h, luminescence monitored over 3 days, read-out: minimum bactericidal concentration (MBC)): 40 mg/L (≈ 90 µM) | drop in relative light units (bioluminescent Mtb [5]; 2.5 μg/ml doxycycline, at 2 days): 1 log | MIC (bioluminescent Mtb [5]; Mycobacterium tuberculosis, bioluminescent Mtb, confirmed by Resazurin, read-out: minimum inhibitory concentration (MIC)): 2.5 mg/L (≈ 5.63 µM)

Nc1ccc(C(=O)O)c(O)c1 [P-amino-salicylic acid]
MMP-1 secretion by Mtb-infected macrophages (MMP-1 [6]): inhibits

Pam3Cys
MMP-1 secretion (MMP-1 [7]): increased; also recorded: up-regulated MMP-1 equivalently to live Mtb
